Experimental data reported in patent US20050257287A1, “Vectors capable of imparting herbicide resistance and viral cross protection and methods” (priority 2002, published 2005).

System: weeds including nutgrass (Cyperus rotundus L.), little hogweed (Portulaca oleracea L.), pigweed (Amaranthus sp.) and annual graminaceous weeds
Assay: Field experiment: weed eradication by Basta
Format: in vivo
Conditions: 0.5% Basta with or without AMS 1.5 g/L
Method: Two varieties of melon (Galia-type cv. 5080 and Ananas-type cv. Ofir), two varieties of watermelon (cvs Crimson and Seedless 313), squash (cv. Maayan) and cucumber (cv. Shimshon) were seeded in Speedling type trays. Seedlings were inoculated by bombardment of cotyledons with the AGII-Bar or AGII construct. Plants were planted in a 500 m^2 field, in a sandy loam soil, at 0.5 m intervals in six 2 m wide rows and irrigated by a single line of 0.5 m interval dripline. Each row included 15 plants of each of the five-cucurbit varieties, 13 plants inoculated with AGII-Bar and two inoculated with AGII as a control. Irrigation was initiated a week previously to boost weeds and facilitate planting. […] The active ingredient was calculated per hectare (g a.i./ha) on basis of ground speed measured separately for each treatment. […] Squash fruit were picked and counted daily. […] Each group was counted and then weighed collectively.
In order to verify the applicability of AGII-Bar to commercial cucurbit cultivation in a field prone to weed infestation an experiment including more than 450 plants was conducted. […] Ten day post inoculation, the infection rate was determined by ELISA of 50 random plant samples and found to be 100%. […]

Substance: ammonium sulphate [AMS]
- Effect of adjuvant on herbicidal activity: did not exert a detectable difference
